Reference: PubChem BioAssay (NCI)
Several values for one entry are separate records, joined by “and”; a condition that tells them apart may be missing. Equal values may be shown once.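 Following 48 hours of exposure in 96-well plates, responses at five concentrations were used to interpolate endpoints linearly. Here, GI50 denotes the concentration required for 50% inhibition of growth. At the TGI there is no net growth.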

Assays:
Assay in all cases: NCI anticancer screen, dose series, 48 h
NCI-H23 lung = system: NCI-H23 lung
HT29 colon = system: HT29 colon
SNB-75 CNS = system: SNB-75 CNS
HCT-116 colon = system: HCT-116 colon
BT-549 breast = system: BT-549 breast
RPMI-8226 leukemia = system: RPMI-8226 leukemia
HCT-15 colon = system: HCT-15 colon
786-0 renal = system: 786-0 renal
KM12 colon = system: KM12 colon
NCI-H460 lung = system: NCI-H460 lung

Structure (SMILES)	GI50 (NCI-H23 lung) [µM]	TGI (NCI-H23 lung)	GI50 (HT29 colon) [µM]	TGI (HT29 colon)	GI50 (SNB-75 CNS) [µM]	GI50 (HCT-116 colon) [µM]	TGI (HCT-116 colon)	GI50 (BT-549 breast) [µM]	TGI (BT-549 breast)	GI50 (RPMI-8226 leukemia) [µM]	TGI (RPMI-8226 leukemia)	GI50 (HCT-15 colon) [µM]	TGI (HCT-15 colon) [µM]	GI50 (786-0 renal) [µM]	TGI (786-0 renal)	GI50 (KM12 colon) [µM]	TGI (KM12 colon)	GI50 (NCI-H460 lung) [µM]	TGI (NCI-H460 lung) [µM]	TGI (SNB-75 CNS)
CCn1cc(/C=C2\Oc3cc(OCC#N)ccc3C2=O)c2cc(OC)ccc21	0.553	> 80.8 µM	0.134	> 100 µM	0.527	0.143	> 100 µM	0.229	20.3 µM	0.214	> 72.5 µM	0.153	> 100	0.167	> 40.9 µM	0.546	> 100 µM	0.347	> 100	
COc1cccc(CNc2ncnc3c2ncn3C2OC(CO)C(O)C2O)c1O (configuration not stated)	0.282	> 100 µM	0.9	> 100 µM	0.174	0.0659		0.0205	0.0978 µM	0.319	> 100 µM	0.138	> 100	0.27	> 100 µM	12.9	> 100 µM	0.931	> 100	9.96 µM
CCOC(=O)c1ccc(NC(=O)NC2=NCCS2)cc1	3.61	> 100 µM	> 93.5	> 100 µM	0.252	50.9	> 100 µM	0.84	> 40.1 µM	1.93	> 100 µM	8.54	> 100	0.693	> 100 µM	0.434	> 100 µM	3.2	> 100	> 100 µM
Clc1ccc(/C=C/c2ccc3ccccc3n2)cc1	3.08	> 100 µM	2.62	8.8 µM	2.63	0.399	> 100 µM	3.16	> 71.8 µM	0.482	18.6 µM	2.08	> 100	6.33	> 100 µM	1.42	20.6 µM	1.2	15.7	> 67.1 µM
C=C1C(=O)O[C@H]2[C@H]1CC/C(COC(=O)N[C@H]1C[C@H](O[C@H]3C[C@](O)(C(=O)CO)Cc4c(O)c5c(c(O)c43)C(=O)c3c(OC)cccc3C5=O)O[C@@H](C)[C@H]1O)=C\CC[C@@]1(C)O[C@@H]21	8.36	18.6 µM	4.48	22 µM	6.97	1.72	5.58 µM	2.4	9.24 µM	1.33	3.97 µM	> 50	> 50	5.7	16.5 µM	13.2	40.7 µM	9.02	> 50	24.1 µM
Cc1cc(CCl)c(C)cc1CCl	3.77	18.5 µM	1.44	3.68 µM	1.38	1.48	6.58 µM	4.34	18.9 µM	1.63	6.9 µM	2.72	17.3	2.19		0.845	2.42 µM	0.12	1.43	4.15 µM
COc1ccc(C(=O)c2sc3nc(-c4ccccc4OC)ccc3c2N)cc1OC	50.1	> 100 µM	4.9	> 100 µM	4.34	5.55	> 100 µM	3.14	17 µM	2.7	> 100 µM	6.13	> 100	11.7	> 100 µM	9.67	> 100 µM	9.61	> 100	23.4 µM
COc1ccc2c(c1)CN([C@@H](C)[C@H]1CC[C@H]3[C@@H]4CC[C@H]5C[C@@H](O)CC[C@]5(C)[C@H]4CC[C@]13C)CO2		5.12 µM		3.63 µM			7.22 µM		14.4 µM		1.97 µM		3.75		2.7 µM		4.31 µM		2.47	4.94 µM
Cn1cc(-c2cc(-c3cn(C)c4ccc(Cl)cc34)[nH]n2)c2cc(Cl)ccc21	2.48	7.69 µM	3.57	18.1 µM	4.25	3.82	15.8 µM	2.03	5.24 µM	6.79	> 100 µM	3.01	15.1	3.41	11.4 µM	3.45	22.9 µM	2.35	5.47	30.6 µM
COc1cc(F)ccc1-c1cc(Nc2cc(CS(C)(=N)=O)ccn2)ncc1F (configuration not stated)	0.0982	1.24 µM	0.0945	> 100 µM	0.0663	0.0293	> 100 µM	0.0739	2.06 µM	0.11	0.662 µM	0.0491	> 100	0.0446	> 47 µM	0.0479	15.6 µM	0.0593	> 100	0.433 µM
CCCC1(CN2c3ccccc3Sc3ccc(Cl)cc32)CCN(CC)C1 (configuration not stated)	1.75	3.55 µM	1.88	3.75 µM	1.77	1.81	3.29 µM	1.8	3.37 µM	2.59	5.73 µM	1.88	3.84	1.89	3.52 µM	1.65	3.18 µM	1.94	3.67	3.74 µM
CCCCCCNCCCNc1c2cc(OC)ccc2nc2cccc([N+](=O)[O-])c12	0.165	0.296 µM and 0.351 µM	0.0544	0.407 µM and 0.353 µM	0.183	0.0384	0.155 µM and 1.01 µM	1.04	2.3 µM and 2.27 µM	0.0646	0.14 µM and 0.348 µM	0.212	14.4	0.205	0.368 µM and 0.724 µM	0.16	0.508 µM and 0.472 µM	0.0337	0.183	0.865 µM and 0.42 µM
Nc1nc(N)c2cc(Sc3ccc4ccccc4c3)ccc2n1		10.2 µM		3.7 µM			1.69 µM		9 µM		4.72 µM		2.55		3.27 µM		3.25 µM		2.26	5.89 µM
